{"source": "patent US20030165919A1", "about": "“Method for the analysis of exogenic and endogenic cell activiation based on measuring the aggregation of receptors” (priority 2000, published 2003)", "molecular_target": "T1, CD11b and CD14 (Homo sapiens, UniProt P08571)", "T1 construct": "endogenous in cells; host or cells: human monocytes in heparinised whole blood (healthy donors and patients)", "T1 sequence (P08571 20-345 limits assumed)": "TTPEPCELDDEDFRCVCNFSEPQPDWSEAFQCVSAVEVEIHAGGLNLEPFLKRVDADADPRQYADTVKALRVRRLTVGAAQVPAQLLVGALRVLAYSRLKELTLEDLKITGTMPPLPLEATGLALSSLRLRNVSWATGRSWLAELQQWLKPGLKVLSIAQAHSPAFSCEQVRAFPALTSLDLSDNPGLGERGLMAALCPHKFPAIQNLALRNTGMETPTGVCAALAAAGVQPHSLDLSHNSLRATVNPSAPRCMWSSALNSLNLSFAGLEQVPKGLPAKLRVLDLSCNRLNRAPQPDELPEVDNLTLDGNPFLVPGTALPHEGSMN", "experiment": "FRET flow cytometry: co-assembly of CD11b and CD14 on monocytes", "assay_type": "cell-based", "conditions": "human monocytes in whole blood, stimulation with the substance alone, 37° C. 15 minutes", "experimental": "Aliquots […] of whole blood were incubated with the following stimulatory compounds at 37° C. for 15 minutes: LPS of Salmonella minnesota (0.1-10 nM, Mw 10 kDa), ceramide (primarily stearic acid and nervonic acid) and sulfogalactosyl ceramide (SG-cer, […]), both of which tested LPS free in the LAL assay (Cer, 1 nM-5.5 mM), lysophosphatidyl choline (lyso-PC, 10 mM), phorbol-12-myristate-13-acetate (PMA, 1 mM), N-formyl-L-methionyl-L-leucyl-L-phenyl alamine (fMLP, 1 mM), PE, PC, PI and PS liposomes (10 mm) which had been prepared as described above. All reagents were obtained from Sigma. In addition, the cells were stimulated with HPS70 (7 nM), dHSP70 (7 nM) and SG-cer+dHSP70 (40 nM+7 nM). After incubation, the cells were washed with cold PBS containing 0.1% of NaN3. The synthetic LPS antagonist lipid IVa (“compound-406”, 1-400 ng/ml) and lipid A derived from E. coli (1-100 ng/ml) were made available by courtesy of Dr. S. Kusumoto. The cells were pre-incubated with the LPS antagonist at 37° C. for 15 minutes and then stimulated with LPS at the same temperature (without washing).\nWhole blood cells which had been stimulated or washed ex vivo […] were incubated on ice for 15 minutes with saturation concentrations of monoclonal fluorochrom-conjugated or biotinylated antibodies. The monoclonal antibodies CD11a (clone 25.3.1), CD16a (clone 3G8). CD18 (clone 7E4), CD14 (clone RMO52), CD33 (clone My9-RD1). CD81 (clone Js64) were obtained as R-phyco-erythrine (R-PE) conjugates and CD25 (clone B1.49.9) in biotinylated form from Coulter/Immunotech (Krefeld, Germany). CD11b (clone d12), CD11c (clone S-HCL-3), CD36 (clone CB38), CD47 (clone B6H12), CD81 (clone JS-81) and (Cd55 (clone IA10) in biotinylated form and Streptavidin-R-PE were purchased from Becton/Dickinson/Pharningen (Heidelberg, Germany) CD18 (clone IB4) in biontinylated form and CD40 (clone EA-5) as R-PE conjugate were obtained from Alexis (Grünberg, Germany) and CD14 (clones ×8 and Uchml) and CD3 (clone Cris-7) in biotinylated form and Streptavidin-Cy5 (Sa-Cy5) from Dianova (Hamburg, Germany), CD32 (clone C1KM5) and CD64 (clone 10.1) were obtained as R-PE conjugates from Caltag (Burlingame, U.S.A.) and CD91 (clone 8G1) in biotinylated form from Proen (Heidelberg, Germany). A monoclonal anti-TLRA antibody (clone HTA125) was kindly provided by Dr. Kensuke. Since no energy transfer between the antibodies directed against the CD14/CD11a and CD14/CD11c pairs was detectable either on resting or on stimulated cells, these antibody combinations were not characterised further.\nLysis of erythrocytes and washing were carried out as described (Rothe et al., Thromb. Vasc. Biol. 16 (1996), 1437-1447). After the last washing step, the samples were divided and part of each sample incubated with a saturating amount of SA-Cy5 on ice for 15 minutes and washed before measuring.\nFor energy transfer experiments, […] aliquots of whole blood were treated with cholesterol/methyl cyclodextrine (C/C) (100 mg/ml/4.6 mg/ml) or 2-hydroxypropyl-β-cyclodextrine (0.15 mg/ml) at 37° C. for 30 minutes and then stimulated further with LPS (4 nM) or ceramide (40 nM) as described above. The energy transfer between CD14 and CD11b was measured.\nA “FACSCalibur” flow cytometer (Becton Dickinson) equipped with an air-cooled 15 mW argon laser (excitation wavelength 488 nm), a diode laser (excitation wavelength […]) and standard filters [channel 1 (FITC): 530/30 nm band pass filter; channel 2 (R-PE being used as donor dye); 585/47 nm band pass filter; channel 3 (PerCP): pass having a length of >670 nm; and channel 4 (Cy5being used as recipient dye): 661/16 nm bad pass filter] was used. The Cellquest software (Becton Dickinson) was used for the measurements. […] Measurement was conducted without compensation. 50,000 leukocytes were required in the “list” modus, forward scattering (FSC) being used as a trigger signal. […]", "data": [{"substance": "lipid A", "values": [{"measurement": "co-assembly of CD11b and CD14 (energy transfer between monoclonal antibodies)", "result": "induced the co-assembly of CD11b and CD14"}]}, {"substance": "lyso-phosphatidyl choline [lysoPC]", "values": [{"measurement": "co-assembly of CD11b and CD14 (energy transfer between monoclonal antibodies)", "result": "Only lipoteichoic acid, PE and PI induced co-assembly"}]}, {"substance": "phosphatidyl choline [PC]", "values": [{"measurement": "co-assembly of CD11b and CD14 (energy transfer between monoclonal antibodies)", "result": "Only lipoteichoic acid, PE and PI induced co-assembly"}]}, {"substance": "phosphatidyl ethanol amine [PE]", "values": [{"measurement": "co-assembly of CD11b and CD14 (energy transfer between monoclonal antibodies)", "result": "induced co-assembly between CD11b and CD14"}]}, {"substance": "phosphatidyl inositol [PI]", "values": [{"measurement": "co-assembly of CD11b and CD14 (energy transfer between monoclonal antibodies)", "result": "induced co-assembly between CD11b and CD14"}]}, {"substance": "phosphatidyl serine [PS]", "values": [{"measurement": "co-assembly of CD11b and CD14 (energy transfer between monoclonal antibodies)", "result": "Only lipoteichoic acid, PE and PI induced co-assembly"}]}, {"substance": "sulfogalactosyl ceramide [SG-cer]", "values": [{"measurement": "co-assembly of CD11b and CD14 (energy transfer between monoclonal antibodies)", "result": "Only lipoteichoic acid, PE and PI induced co-assembly"}]}]}
